The source of these data is patent publication US6130053A, “Method for selecting compounds for inhibition of neoplastic lesions” (priority 1999, dated 2000).

The subject of data set [1] is SW-480 colon adenocarcinoma cells. The experiment in a line: Apoptosis inducing activity, fold induction (fold stimulation, DNA fragmentation ELISA). To be noted: for fold induction at 100 µM: Homo sapiens, SW480, read-out: Fold induction of apoptosis at 100 μM, 100 μM.
Data set [2] addresses T1, COX-I (purified cyclooxygenase Type 1) (Ovis aries, UniProt P05979).
T1 construct: purified cyclooxygenase from ram seminal vesicles; from tissue; host or cells: ram seminal vesicles
T1 sequence (P05979 25-600): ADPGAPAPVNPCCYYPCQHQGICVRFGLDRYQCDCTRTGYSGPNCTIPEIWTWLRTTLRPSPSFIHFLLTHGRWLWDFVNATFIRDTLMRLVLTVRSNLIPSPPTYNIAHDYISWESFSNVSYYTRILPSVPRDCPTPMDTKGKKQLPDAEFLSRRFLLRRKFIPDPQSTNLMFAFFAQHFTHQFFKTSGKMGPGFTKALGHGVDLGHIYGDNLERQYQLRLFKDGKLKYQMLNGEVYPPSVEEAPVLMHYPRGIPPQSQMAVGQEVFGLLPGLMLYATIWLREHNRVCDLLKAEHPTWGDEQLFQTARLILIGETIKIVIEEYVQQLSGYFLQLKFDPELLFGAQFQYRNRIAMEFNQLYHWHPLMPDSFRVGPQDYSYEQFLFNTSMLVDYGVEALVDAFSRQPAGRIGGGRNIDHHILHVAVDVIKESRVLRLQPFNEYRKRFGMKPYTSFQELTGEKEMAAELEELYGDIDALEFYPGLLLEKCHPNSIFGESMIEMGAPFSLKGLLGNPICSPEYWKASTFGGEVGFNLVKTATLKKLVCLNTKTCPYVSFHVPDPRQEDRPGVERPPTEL
Briefly: COX inhibition assay, purified cyclooxygenase (Type 1). The data set is classed as biochemical, ram. The note with it: for COX-I inhibition: FIG. 5.

The subject of another data set is HT-29 cells. The experiment in a line: Growth inhibition of HT-29 cells. The data set is classed as cell-based, human.
For the next data set, the system named is cGMP PDE. Briefly: cGMP PDE inhibition assay, enzyme purified from HT-29 cultured tumor cells. The data set is classed as biochemical, human.
The test system of data set [3] is PDE peak B (novel cGMP-specific phosphodiesterase). Briefly: Inhibition of cGMP hydrolysis by PDE peak B (novel cGMP-specific PDE) from SW480 cells. The data set is classed as biochemical, human. The note with it: for Km: absence of cAMP.
The next data set deals with T2, PDE peak A (PDE5) (Homo sapiens, UniProt O76074).
T2 construct: approximately four hundred million SW480 cells at confluence were scraped; endogenous in cells; host or cells: SW480 human colon adenocarcinoma cells (DEAE-Trisacryl M fraction)
Briefly: Inhibition of cGMP hydrolysis by PDE peak A from SW480 cells. The data set is classed as biochemical.

The subject of another data set is HT-29 cells (cAMP level). The experiment in a line: cAMP production in cultured HT-29 cells (radioimmunoassay). The note with it: 30 minutes. The format is cell-based, human.
In data set [4] the test system is PDE peak B (novel cGMP-specific phosphodiesterase). To be noted: cited from earlier work.
In another data set the target is native bovine PDE5. To be noted: read-out: Kd (cGMP binding, native bovine PDE5); cited from earlier work.
Data set [5] relates to premalignant lesions in mammary gland organ culture. The experiment in a line: Inhibition of premalignant lesions in mammary gland organ culture. The format is cell-based, mouse. The note with it: FIG. 17.
Protocol: Test compounds identified by the above methods can be tested for antineoplastic activity by their ability to inhibit the incidence of preneoplastic lesions in a mammary gland organ culture system.
For example, female BALB/c mice can be treated with a combination of estradiol and progesterone daily, in order to prime the glands to be responsive to hormones in vitro. The animals are sacrificed and thoracic mammary glands are excised aseptically and incubated for ten days in growth media supplemented with insulin, prolactin, hydrocortisone, and aldosterone. DMBA (7,12-dimethylbenz(a)anthracene) is added to medium to induce the formation of premalignant lesions. Fully developed glands are then deprived of prolactin, hydrocortisone, and aldosterone, resulting in the regression of the glands but not the premalignant lesions.
The test compound is dissolved in DMSO and added to the culture media for the duration of the culture period. At the end of the culture period, the glands are fixed in 10% formalin, stained with alum carmine, and mounted on glass slides. […]
The extent of the area occupied by the mammary lesions can be quantitated by projecting an image of the gland onto a digitation pad. […] The space covered by each of the unregressed structures is also outlined on the digitization pad and quantitated by the computer.
In data set [6] the test system is [H][C@@]12COP(=O)(O)O[C@@]1([H])[C@@H](O)[C@H](n1cnc3c(=O)[nH]c(N)nc31)O2. The experiment in a line: purified protein, by the assay type. The note with it: 30.0 °C.
Setting [7] is: Homo sapiens, HT-29; read-out: Growth % Inhibition at 100 μM.

“Also recorded” adds a separate entry of the source. Like-named read-outs stand apart in the source and are kept apart here.

Protocol for cGMP PDE: The mixture is incubated at 30° C. for 10 minutes with isolated PDE of this invention. Reactions are terminated, for example, by boiling the reaction mixture for 75 seconds. After cooling on ice, 100 μl of 0.5 mg/ml snake venom (O. Hannah venom available from Sigma) is added and incubated for 10 minutes at 30° C. This reaction is then terminated by the addition of an alcohol, e.g. 1 ml of 100% methanol. Assay samples are applied to 1 ml Dowex 1-X8 column; and washed with 1 ml of 100% methanol. The amount of radioactivity in the breakthrough and the wash from the column is combined and measured with a scintillation counter. The degree of phosphodiesterase inhibition is determined by calculating the amount of radioactivity in drug-treated reactions and comparing against a control sample (a reaction mixture lacking the tested compound but with drug solvent).

As to `CCN(CC)CCSC12CC(=O)OC1(C)/C(=C/c1ccc(S(C)(=O)=O)cc1)c1ccc(F)cc12` (racemic) [A, rac-threo-(E)-1-(N,N'-diethylaminoethanethio)-1-(butan-1',4'-olido)-[3',4':1,2]-6-fluoro-2-methyl-3-(p-methylsulfonylbenzylidene)-indan], the fold induction at 100 µM in data set [1] was less than 2. For the same compound, the values for the inhibition at 100 µM (in data set [2]; in the data set on HT-29 cells (setting [7])) were less than 25% and 68%, respectively. The “cGMP PDE % Inhibition at 10 μM” value in the data set on cGMP PDE is reported as less than 25%.

On to `CC(=O)NC(CSC12CC(=O)OC1(C)/C(=C/c1ccc(S(C)(=O)=O)cc1)c1ccc(F)cc12)C(=O)O` (racemic) [D, rac-(E)-1-(butan-1',4'-olido)-[3',4':1,2]-6-fluoro-2-methyl-3-(p-methylsulfonylbenzylidene)-1S-indanyl-N-acetylcysteine], for which the figures for the inhibition at 100 µM (in data set [2]; with HT-29 cells (setting [7])) were less than 25% and 78%, respectively.

Take `CCCCCC[C@H]([C@H](C)O)n1cnc2c(N)ncnc21` (relative stereo) [EHNA]: the fold induction at 100 µM in data set [1] was less than 2. Further, the IC50 in data set [3] (cGMP hydrolysis, 0.25 μM 3H-cGMP) was 3.7 µM; against PDE peak A (PDE5) it was more than 100 µM.

Regarding `COc1cc(/C=C2/C(C)=C(CC(=O)O)c3cc(F)ccc32)cc(OC)c1OC` [B, (Z)-5-Fluoro-2-methyl-1-(3,4,5-trimethoxybenzylidene)-3-acetic acid], the fold induction at 100 µM in [1] was found to be 3.4. The “COX-I inhibition” value in data set [2] is “neither test compound B and E significantly inhibit COX-I”. Moreover, the “cGMP PDE % Inhibition at 10 μM” value in the data set on cGMP PDE is less than 25%. In the data set on cGMP PDE (20 μM, FIG. 8), the “cGMP PDE inhibition at 20 μM” value is “greater than 50%”.

`CC1=C(CC(=O)O)c2cc(F)ccc2/C1=C\c1ccc(Cl)cc1` [Compound C, (Z)-5-Fluoro-2-methyl-1-(p-chlorobenzylidene)-3-acetic acid]: the inhibition at 100 µM with HT-29 cells (setting [7]) stood at 80%. In the data set on cGMP PDE, the “cGMP PDE % Inhibition at 10 μM” value is less than 25%.

On to `O=C(O)C1CCN(c2nc(NCc3ccc4c(c3)OCO4)c3cc(Cl)ccc3n2)CC1` [Compound E4021], for which, in the data set with HT-29 cells (Homo sapiens, HT-29, read-out: Growth % Inhibition at 100 μM), the inhibition at 100 µM was less than 50%.

`COc1cc(/C=C2/C(C)=C(CC(=O)NCc3ccccc3)c3cc(F)ccc32)cc(OC)c1OC` [Compound E, (Z)-5-Fluoro-2-methyl-1-(3,4,5-trimethoxybenzylidene)-3-indenylacetamide, N-benzyl]: in data set [1] (neoplastic cells), the “apoptosis-inducing or growth-inhibiting properties” value is reported as “precisely the opposite”. Also, the “COX-I inhibition” value in [2] was “neither test compound B and E significantly inhibit COX-I”. In data set [3], the “mode of inhibition of peak B” value is given as “competitively inhibited”. Also, the “mode of inhibition of peak A” value on PDE peak A (PDE5) is given as “competitively inhibited”.

For the compound `CC1(C)C(=O)Nc2ccc(C3=NNC(=O)CC3)cc21` [Indolidan], the “sensitivity of peak B / novel PDE to inhibitor” value in [3] is on record as “insensitive”.

In the case of `Clc1cccc(Nc2nnc(-c3ccccc3)c3ccccc23)c1` [MY5445, 1-(3-chloroanilino)-4-phenyphthalazine], 100 µM produced 94% inhibition in [2].

As for `COc1ccc(C2CNC(=O)C2)cc1OC1CCCC1` (stereo not shown) [Rolipram], the “effect on cAMP level” value in the data set with HT-29 cells (cAMP level) is listed as “increased cAMP”. The “sensitivity of peak B / novel PDE to inhibitor” value in data set [3] is on record as “insensitive”.

On to `CCCc1nn(C)c2c(=O)[nH]c(-c3cc(S(=O)(=O)N4CCN(C)CC4)ccc3OCC)nc12` [Sildenafil], for which, in data set [4], the “effect on new cGMP-specific PDE (words, '375 application)” value is listed as “little relative effect”. In addition, the “inhibition of peak A activity” value at PDE peak A (PDE5) was “inhibited activity of peak A”.

With `CCOC(=O)C1=C[C@]2(CC)CCCN3CCc4c(n1c1ccccc41)[C@@H]32` [Vinpocetine], the “sensitivity of peak B / novel PDE to inhibitor” value in data set [3] is recorded as “insensitive”.

With `CCCOc1ccccc1-c1nc2nn[nH]c2c(=O)[nH]1` [Zaprinast], the “sensitivity of peak B / novel PDE to inhibitor” value in data set [3] is reported as “reduced sensitivity to inhibition; also recorded: zaprinast-insensitive”.

Consider `Nc1nc2c(ncn2[C@@H]2O[C@@H]3COP(=O)(O)O[C@H]3[C@H]2O)c(=O)[nH]1` [cGMP, cyclic guanosine 3',5'-monophosphate], for which the dissociation constant Kd on native bovine PDE5 is 1.3 µM. Besides, the Michaelis-Menten constant (Km) in data set [3] (read-out: Km of peak B for cGMP (increasing slope)) was less than 1 µM; in data set [3] (read-out: apparent Km of peak B for cGMP (first, decreasing part of Eadie-Hofstee plot)) it was 8.4 µM.

With `CC1=C(CC(=O)O)c2cc(F)ccc2/C1=C\c1ccc([S+](C)[O-])cc1` (stereo not shown) [sulindac], in [5], the “inhibition of premalignant lesions” value was “effectively inhibit the formation of premalignant lesions”.

PDE peak A (PDE5) (Homo sapiens): in data set [6], the Km stood at 1.07 µM and the Vmax is listed as 0.16 nmol/min/mg.
